Species on record: Rattus norvegicus
Test: Open TG-GATES - Regimen: Daily Repeat
Assay type: toxicity, organism-based, Sprague-Dawley
Parameters: regimen Daily Repeat, gender Male, age 6 weeks
Details: in vivo, po, route gavage; for KIDNEY_L / KIDNEY_R / KIDNEY_TOTAL: tissue Kidney; for LIVER: tissue Liver; for ALP / ALT / AST / CRE / DBIL / IP / K / LDH / Na / PL / RALB / TBIL / TC / TG / TP / gamma-GTP / BUN: tissue Plasma
[1] = 0 mg/kg, 72 h, dose level Control, time 3 day
[2] = 0 mg/kg, 72 h, tissue Blood, dose level Control, time 3 day
[3] = 0 mg/kg, […], dose level Control, time 7 day
[4] = 0 mg/kg, […], dose level Control, time 14 day
[5] = 0 mg/kg, […], dose level Control, time 28 day
[6] = 0 mg/kg, […], tissue Blood, dose level Control, time 7 day
[7] = 0 mg/kg, […], tissue Blood, dose level Control, time 14 day
[8] = 0 mg/kg, […], tissue Blood, dose level Control, time 28 day
[9] = 40 mg/kg, 72 h, tissue Blood, dose level Low, time 3 day

Compound `CCC(C)(C)C(=O)O[C@H]1C[C@@H](C)C=C2C=C[C@H](C)[C@H](CC[C@@H]3C[C@@H](O)CC(=O)O3)[C@H]21` [SIMVASTATIN] has a TERMINAL_BW [1] of 222.3 g, a Bas [2] of 0% and an Eos [2] of 1%. The Fbg [2] was 227 mg/dL, the Hb [2] was 13.3 g/dL and the Ht [2] was 40%. The Lym [2] was 78.8%, the MCHC [2] was 33.1% and the Mono [2] was 8.8%. For the same compound, the Neu [2] was 11.8%, the Plat [2] was 121.1 x10_4/uL and the RBC [2] was 621.6 x10_4/ul. For the same compound, the Ret [2] was 6.5%, the WBC [2] was 98.2 x10_2/uL and the KIDNEY_L [1] was 1 g. For the same compound, the KIDNEY_R [1] was 1 g, the KIDNEY_TOTAL [1] was 2 g and the LIVER [1] was 11 g. For the same compound, the ALP [1] was 820.2 IU/L, the ALT [1] was 36.6 IU/L and the AST [1] was 58.8 IU/L. The CRE [1] was 0.6 mg/dL, the DBIL [1] was 0.004 mg/dL and the IP [1] was 7.8 mg/dL. The K [1] was 4.6 meq/L, the LDH [1] was 81 IU/L and the Na [1] was 140.2 meq/L. The PL [1] was 143.4 mg/dL, the RALB [1] was 3.8 g/dL and the TBIL [1] was 0.3 mg/dL. For the same compound, the TC [1] was 82.2 mg/dL, the TG [1] was 75.6 mg/dL and the TP [1] was 5.6 g/dL. It also gave a gamma-GTP [1] of 1.8 IU/L, a TERMINAL_BW [3] of 253.4 g and a TERMINAL_BW [4] of 301 g. For the same compound, the TERMINAL_BW [5] was 380.8 g, the Bas [6] was 0% and the Eos [6] was 0.8%. It also gave a Fbg [6] of 217.4 mg/dL, a Hb [6] of 12.8 g/dL and a Ht [6] of 38.8%. It also gave a Lym [6] of 78.6%, an MCHC [6] of 33% and a Mono [6] of 8.8%. For the same compound, the Neu [6] was 12%, the PT [6] was 10.9 s and the Plat [6] was 115.6 x10_4/uL. It also gave an RBC [6] of 606.2 x10_4/ul, a Ret [6] of 3.8% and a WBC [6] of 108.7 x10_2/uL. The Bas [7] was 0%, the Eos [7] was 1% and the Fbg [7] was 222.4 mg/dL. The Hb [7] was 13.9 g/dL, the Ht [7] was 41.7% and the Lym [7] was 78.4%. The MCHC [7] was 33.2%, the Mono [7] was 7% and the Neu [7] was 13.8%. For the same compound, the Plat [7] was 123.4 x10_4/uL, the RBC [7] was 674.8 x10_4/ul and the Ret [7] was 6.2%. The WBC [7] was 122.2 x10_2/uL, the Bas [8] was 0% and the Eos [8] was 1%. For the same compound, the Fbg [8] was 227.8 mg/dL, the Hb [8] was 14.5 g/dL and the Ht [8] was 43.6%. For the same compound, the Lym [8] was 85.6%, the MCHC [8] was 33.3% and the MCV [8] was 57.8 fL. The Mono [8] was 4.8%, the Neu [8] was 8.6% and the PT [8] was 11.7 s. The Plat [8] was 120.4 x10_4/uL, the RBC [8] was 753.6 x10_4/ul and the Ret [8] was 3%. It also gave a WBC [8] of 132.7 x10_2/uL, a KIDNEY_L [3] of 1.1 g and a KIDNEY_R [3] of 1.1 g. For the same compound, the KIDNEY_TOTAL [3] was 2.2 g, the KIDNEY_L [4] was 1.2 g and the KIDNEY_R [4] was 1.3 g. The KIDNEY_TOTAL [4] was 2.5 g, the KIDNEY_L [5] was 1.4 g and the KIDNEY_R [5] was 1.4 g. The KIDNEY_TOTAL [5] was 2.8 g, the LIVER [3] was 12.2 g and the LIVER [4] was 14 g. It also gave an LIVER [5] of 15.9 g, an ALP [3] of 953 IU/L and an ALT [3] of 34.4 IU/L. It also gave an AST [3] of 63.4 IU/L, a CRE [3] of 0.7 mg/dL and a DBIL [3] of 0.012 mg/dL. It also gave an IP [3] of 7.1 mg/dL, a K [3] of 4.7 meq/L and an LDH [3] of 81.6 IU/L. It also gave a Na [3] of 142.4 meq/L, a PL [3] of 152.4 mg/dL and an RALB [3] of 3.8 g/dL. For the same compound, the TBIL [3] was 0.3 mg/dL, the TC [3] was 78.6 mg/dL and the TP [3] was 5.7 g/dL. It also gave a gamma-GTP [3] of 1.2 IU/L, an ALP [4] of 777.2 IU/L and an ALT [4] of 34.6 IU/L. It also gave an AST [4] of 64.2 IU/L, a BUN [4] of 20.6 mg/dL and a CRE [4] of 0.6 mg/dL. For the same compound, the DBIL [4] was 0.016 mg/dL, the IP [4] was 7 mg/dL and the K [4] was 4.5 meq/L. The LDH [4] was 74.6 IU/L, the Na [4] was 140.6 meq/L and the PL [4] was 154.4 mg/dL. For the same compound, the RALB [4] was 3.8 g/dL, the TBIL [4] was 0.3 mg/dL and the TC [4] was 73.6 mg/dL. The TG [4] was 115.8 mg/dL, the TP [4] was 5.9 g/dL and the gamma-GTP [4] was 1.4 IU/L. The ALP [5] was 672 IU/L, the ALT [5] was 31.8 IU/L and the AST [5] was 57.6 IU/L. For the same compound, the BUN [5] was 20 mg/dL, the CRE [5] was 0.7 mg/dL and the DBIL [5] was 0.016 mg/dL. The IP [5] was 5.9 mg/dL, the K [5] was 4.3 meq/L and the LDH [5] was 76.6 IU/L. It also gave a Na [5] of 142.6 meq/L, a PL [5] of 147.8 mg/dL and an RALB [5] of 3.9 g/dL. For the same compound, the TBIL [5] was 0.3 mg/dL, the TC [5] was 66 mg/dL and the TG [5] was 151.4 mg/dL. The TP [5] was 6.1 g/dL, the gamma-GTP [5] was 1.6 IU/L and the TERMINAL_BW (40 mg/kg, 72 h, dose level Low, time 3 day) was 221.3 g. The Bas [9] was 0% and the Eos [9] was 1%.

— ChEMBL document CHEMBL3885861, “Open TG-GATES”
